Laboratory results taken from PMC8474115 (Journal of Medicinal Chemistry, 2021).
Several values for one entry are separate records, joined by “and”; a condition that tells them apart may be missing. Identical values can stand only once. Counter-ions that a name gives are not always drawn. Like-named read-outs stand apart in the source and are kept apart here. Each block holds one molecule with its values, some of them ahead of it.

What was measured:
5-HT3R = target: T1, 5-HT3R (Cavia porcellus, UniProt O70212); conditions: for antagonist effect: percent inhibition of response to 5-HT 3 μM (contraction of guinea pig ileum); for functional classification at 5-HT3R: guinea pig ileum contraction
T1 sequence (O70212 20-490): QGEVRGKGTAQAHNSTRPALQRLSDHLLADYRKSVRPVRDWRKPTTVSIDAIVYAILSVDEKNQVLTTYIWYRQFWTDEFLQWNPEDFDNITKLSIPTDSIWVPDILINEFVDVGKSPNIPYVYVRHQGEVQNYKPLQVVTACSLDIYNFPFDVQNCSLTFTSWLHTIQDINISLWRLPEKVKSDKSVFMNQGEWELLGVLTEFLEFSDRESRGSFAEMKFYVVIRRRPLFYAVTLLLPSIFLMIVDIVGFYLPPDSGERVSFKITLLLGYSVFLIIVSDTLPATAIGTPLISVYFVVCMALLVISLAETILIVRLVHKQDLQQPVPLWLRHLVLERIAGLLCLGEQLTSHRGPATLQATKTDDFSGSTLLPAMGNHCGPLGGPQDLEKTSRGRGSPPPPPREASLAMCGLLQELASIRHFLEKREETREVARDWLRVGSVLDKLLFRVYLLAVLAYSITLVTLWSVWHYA

h5-HT6R [1] = target: T2, h5-HT6R (Homo sapiens, UniProt P50406); conditions: HEK cells stably expressing h5-HT6R
h5-HT6R [2] = target: T2, h5-HT6R; assay: Inhibition of 5-CT-induced cAMP production in 1321N1 cells expressing h5-HT6R; assay type: cell-based; parameters: host or cells: 1321N1; conditions: 10^–6 M, percent inhibition of control agonist response

T2 sequence (P50406 whole entry): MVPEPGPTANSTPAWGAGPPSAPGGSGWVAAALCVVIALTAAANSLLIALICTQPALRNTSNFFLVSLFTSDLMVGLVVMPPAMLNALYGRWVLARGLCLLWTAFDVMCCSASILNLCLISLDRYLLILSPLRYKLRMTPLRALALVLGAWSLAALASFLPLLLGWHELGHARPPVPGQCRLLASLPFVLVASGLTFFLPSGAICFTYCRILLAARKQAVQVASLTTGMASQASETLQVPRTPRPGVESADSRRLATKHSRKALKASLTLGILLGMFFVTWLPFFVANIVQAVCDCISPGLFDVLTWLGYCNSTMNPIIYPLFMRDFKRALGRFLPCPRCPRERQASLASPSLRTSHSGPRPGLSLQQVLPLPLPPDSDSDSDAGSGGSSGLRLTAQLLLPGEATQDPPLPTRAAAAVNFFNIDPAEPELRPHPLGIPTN

melting point: 157 to 159 °C
Structure (SMILES): O=S(=O)(c1ccccc1Cl)n1ccc2c(N3CCNCC3)nc3ccccc3c21 (as salt: hydrochloride)

melting point: 180 to 182 °C
Structure (SMILES): O=S(=O)(c1ccc(F)c(F)c1)n1ccc2c(N3CCNCC3)nc3ccccc3c21 (as salt: hydrochloride)

melting point: 203 to 205 °C
Structure (SMILES): O=S(=O)(c1ccc(Cl)c(Cl)c1)n1ccc2c(N3CCNCC3)nc3ccccc3c21 (as salt: hydrochloride)

melting point: 218 to 220 °C
Structure (SMILES): O=S(=O)(c1cccc2ccccc12)n1ccc2c(N3CCNCC3)nc3ccccc3c21 (as salt: hydrochloride)

Structure (SMILES): CN1CCN(c2nc3ccccc3c3c2ccn3S(=O)(=O)c2ccccc2)CC1 (as salt: hydrochloride) [Compound 6, 1-(Phenylsulfonyl)-4-(4-methylpiperazin-1-yl)-1H-pyrrolo[3,2-c]quinoline hydrochloride]
melting point: 127 to 129 °C

Structure (SMILES): O=S(=O)(c1ccccc1)n1ccc2c(N3CCNCC3)nc3ccccc3c21 (as salt: hydrochloride) [Compound 7, 1-(Phenylsulfonyl)-4-(piperazin-1-yl)-1H-pyrrolo[3,2-c]quinoline dihydrochloride]
melting point: 130 to 132 °C

Structure (SMILES): O=S(=O)(c1ccccc1)n1ccc2c(N[C@H]3CCNC3)nc3ccccc3c21 (as salt: hydrochloride) [Compound 8, (S)-1-(Phenylsulfonyl)-N-(pyrrolidin-3-yl)-1H-pyrrolo[3,2-c]quinolin-4-amine dihydrochloride]
melting point: 220 to 222 °C

Structure (SMILES): O=S(=O)(c1ccccc1)n1ccc2c(NC3CNC3)nc3ccccc3c21 (as salt: hydrochloride) [Compound 9, N-(Azetidin-3-yl)-1-(phenylsulfonyl)-1H-pyrrolo[3,2-c]quinolin-4-amine dihydrochloride]
melting point: 243 to 246 °C

Structure (SMILES): CNC1CCN(c2nc3ccccc3c3c2ccn3S(=O)(=O)c2ccccc2)C1 (centres unmarked) (as salt: hydrochloride) [Compound 10, N-Methyl-1-(1-(phenylsulfonyl)-1H-pyrrolo[3,2-c]quinolin-4-yl)pyrrolidin-3-amine dihydrochloride]
melting point: 256 to 258 °C

Structure (SMILES): O=S(=O)(c1ccccc1)n1ccc2c(N3CCCNCC3)nc3ccccc3c21 (as salt: hydrochloride) [Compound 11, 4-(1,4-Diazepan-1-yl)-1-(phenylsulfonyl)-1H-pyrrolo[3,2-c]quinoline dihydrochloride]
melting point: 247 to 248 °C

Structure (SMILES): CN1CCN(c2nc3ccccc3c3c2ccn3S(=O)(=O)c2cccc(F)c2)CC1 (as salt: hydrochloride) [Compound 12, 1-[(3-Fluorophenyl)sulfonyl]-4-(4-methylpiperazin-1-yl)-1H-pyrrolo[3,2-c]quinoline hydrochloride]
melting point: 176 to 177 °C

Structure (SMILES): O=S(=O)(c1ccccc1Br)n1ccc2c(N3CCNCC3)nc3ccccc3c21 (as salt: hydrochloride) [Compound 15, 1-[(2-Bromophenyl)sulfonyl]-4-(piperazin-1-yl)-1H-pyrrolo[3,2-c]quinoline dihydrochloride]
melting point: 158 to 160 °C

Structure (SMILES): O=S(=O)(c1cccc(Cl)c1)n1ccc2c(N3CCNCC3)nc3ccccc3c21 (as salt: hydrochloride) [Compound 18, 1-[(3-Chlorophenyl)sulfonyl]-4-(piperazin-1-yl)-1H-pyrrolo[3,2-c]quinoline dihydrochloride]
melting point: 161 to 163 °C

Structure (SMILES): O=S(=O)(c1cccc(C(F)(F)F)c1)n1ccc2c(N3CCNCC3)nc3ccccc3c21 (as salt: hydrochloride) [Compound 19, 1-{[3-(Trifluoromethyl)phenyl]sulfonyl}-4-(piperazin-1-yl)-1H-pyrrolo[3,2-c]quinoline dihydrochloride]
melting point: 182 to 185 °C

Structure (SMILES): Cc1cccc(S(=O)(=O)n2ccc3c(N4CCNCC4)nc4ccccc4c32)c1 (as salt: hydrochloride) [Compound 20, 1-[(3-Methylphenyl)sulfonyl]-4-(piperazin-1-yl)-1H-pyrrolo[3,2-c]quinoline dihydrochloride]
melting point: 179 to 181 °C

Structure (SMILES): O=S(=O)(c1ccc(F)cc1)n1ccc2c(N3CCNCC3)nc3ccccc3c21 (as salt: hydrochloride) [Compound 22, 1-[(4-Fluorophenyl)sulfonyl]-4-(piperazin-1-yl)-1H-pyrrolo[3,2-c]quinoline dihydrochloride]
melting point: 172 to 174 °C

Structure (SMILES): O=S(=O)(c1ccc(C(F)(F)F)cc1)n1ccc2c(N3CCNCC3)nc3ccccc3c21 (as salt: hydrochloride) [Compound 23, 1-{[4-(Trifluoromethyl)phenyl]sulfonyl}-4-(piperazin-1-yl)-1H-pyrrolo[3,2-c]quinoline dihydrochloride]
melting point: 165 to 167 °C

Structure (SMILES): CC(C)c1ccc(S(=O)(=O)n2ccc3c(N4CCNCC4)nc4ccccc4c32)cc1 (as salt: hydrochloride) [Compound 24, 1-[(4-iso-Propylphenyl)sulfonyl]-4-(piperazin-1-yl)-1H-pyrrolo[3,2-c]quinoline dihydrochloride]
melting point: 212 to 214 °C

Structure (SMILES): O=S(=O)(c1cc(F)ccc1F)n1ccc2c(N3CCNCC3)nc3ccccc3c21 (as salt: hydrochloride) [Compound 27, 1-[(2,5-Difluorophenyl)sulfonyl]-4-(piperazin-1-yl)-1H-pyrrolo[3,2-c]quinoline dihydrochloride]
melting point: 204 to 206 °C

Structure (SMILES): CN1CCN(c2nc3ccccc3c3c2ccn3S(=O)(=O)c2ccccc2)CC1 [Compound 6, 1-(Phenylsulfonyl)-4-(4-methylpiperazin-1-yl)-1H-pyrrolo[3,2-c]quinoline hydrochloride]
antagonist effect (5-HT3R; 100 nM): 28%
antagonist effect (5-HT3R; 300 nM): 48%
functional classification at 5-HT3R (5-HT3R): antagonistic properties

Structure (SMILES): O=S(=O)(c1ccccc1)n1ccc2c(N3CCNCC3)nc3ccccc3c21 [Compound 7, 1-(Phenylsulfonyl)-4-(piperazin-1-yl)-1H-pyrrolo[3,2-c]quinoline dihydrochloride]
antagonist effect (5-HT3R; 100 nM): 26%
antagonist effect (5-HT3R; 300 nM): 60%
functional classification at 5-HT3R (5-HT3R): antagonistic properties

Structure (SMILES): O=S(=O)(c1ccccc1)n1ccc2c(N[C@H]3CCNC3)nc3ccccc3c21 [Compound 8, (S)-1-(Phenylsulfonyl)-N-(pyrrolidin-3-yl)-1H-pyrrolo[3,2-c]quinolin-4-amine dihydrochloride]
antagonist effect (5-HT3R; 300 nM): 32% and 32 (300 nM) %

Structure (SMILES): O=S(=O)(c1ccccc1)n1ccc2c(NC3CNC3)nc3ccccc3c21 [Compound 9, N-(Azetidin-3-yl)-1-(phenylsulfonyl)-1H-pyrrolo[3,2-c]quinolin-4-amine dihydrochloride]
antagonist effect (5-HT3R; 300 nM): 35% and 35 (300 nM) %

Structure (SMILES): CNC1CCN(c2nc3ccccc3c3c2ccn3S(=O)(=O)c2ccccc2)C1 (centres unmarked) [Compound 10, N-Methyl-1-(1-(phenylsulfonyl)-1H-pyrrolo[3,2-c]quinolin-4-yl)pyrrolidin-3-amine dihydrochloride]
antagonist effect (5-HT3R; 300 nM): 48% and 48 (300 nM) %

Structure (SMILES): O=S(=O)(c1ccccc1)n1ccc2c(N3CCCNCC3)nc3ccccc3c21 [Compound 11, 4-(1,4-Diazepan-1-yl)-1-(phenylsulfonyl)-1H-pyrrolo[3,2-c]quinoline dihydrochloride]
antagonist effect (5-HT3R; 300 nM): 53% and 53 (300 nM) %

Structure (SMILES): CN1CCN(c2nc3ccccc3c3c2ccn3S(=O)(=O)c2cccc(F)c2)CC1 [Compound 12, 1-[(3-Fluorophenyl)sulfonyl]-4-(4-methylpiperazin-1-yl)-1H-pyrrolo[3,2-c]quinoline hydrochloride]
antagonist effect (5-HT3R; 30 nM): 30%
antagonist effect (5-HT3R; 100 nM): 74%

Structure (SMILES): CN1CCN(c2nc3ccccc3c3c2ccn3S(=O)(=O)c2cccc(Cl)c2)CC1 [Compound 13, 1-[(3-Chlorophenyl)sulfonyl]-4-(4-methylpiperazin-1-yl)-1H-pyrrolo[3,2-c]quinoline hydrochloride]
antagonist effect (5-HT3R; 100 nM): 10%
antagonist effect (5-HT3R; 300 nM): 44%

Structure (SMILES): O=S(=O)(c1ccccc1Br)n1ccc2c(N3CCNCC3)nc3ccccc3c21 [Compound 15, 1-[(2-Bromophenyl)sulfonyl]-4-(piperazin-1-yl)-1H-pyrrolo[3,2-c]quinoline dihydrochloride]
Ki (h5-HT6R [1]): 13 nM
antagonist effect (h5-HT6R [2]): 69%

Structure (SMILES): O=S(=O)(c1cccc(C(F)(F)F)c1)n1ccc2c(N3CCNCC3)nc3ccccc3c21 [Compound 19, 1-{[3-(Trifluoromethyl)phenyl]sulfonyl}-4-(piperazin-1-yl)-1H-pyrrolo[3,2-c]quinoline dihydrochloride]
antagonist effect (5-HT3R; 100 nM): 21%
antagonist effect (5-HT3R; 300 nM): 37%
pD2′ (5-HT3R; antagonist potency, guinea pig ileum): 6.09

Structure (SMILES): COc1cccc(S(=O)(=O)n2ccc3c(N4CCNCC4)nc4ccccc4c32)c1 [Compound 21, 1-[(3-Methoxyphenyl)sulfonyl]-4-(piperazin-1-yl)-1H-pyrrolo[3,2-c]quinoline dihydrochloride]
antagonist effect (5-HT3R; 100 nM): 28%
antagonist effect (5-HT3R; 300 nM): 73%

Structure (SMILES): O=S(=O)(c1cc(F)ccc1F)n1ccc2c(N3CCNCC3)nc3ccccc3c21 [Compound 27, 1-[(2,5-Difluorophenyl)sulfonyl]-4-(piperazin-1-yl)-1H-pyrrolo[3,2-c]quinoline dihydrochloride]
antagonist effect (5-HT3R; 300 nM): 32 (300 nM) %
